The subject of one series is SW837 cells. Nature of the series: Western blot of cell lysates. Type of series: cell-based, human. Particulars: 10^−7M, 72 hrs. Here is the method:
(§1) Western blot analysis was used to determine the levels of proteins involved in cell cycle and differentiation. […] After centrifugation at 15,000×g for 15 min at 4° C., the suspension was collected. Protein concentrations were quantitated using the Bio-Rad assay (Bio-Rad Labolatories, Hercules, Calif.). […] The blots were developed using the Supersignal West Pico Chemiluminescent Substrate Kit (Pierce, Rockford, Ill.). In FIG. 4C, HT-29 and SW837 cells were cultured with either paricalcitol (10^−7M) or 1,25(OH)2D3 (10^−7M) for 72 hrs. Cell lysates were prepared and analyzed by Western blot which was probed sequentially with antibodies to COX-1 and COX-2 (Santa Cruz Biotechnology). Control cells were treated with vehicle alone. The amount of protein was normalized by comparison to the quantity of GAPDH.
(In general: In western blotting, separated proteins are transferred to a membrane and probed.)

Series [1] deals with HL-60 cells. The experiment in a line: CD14 expression by flow cytometry. Type of series: cell-based, human. On the procedure:
In order to measure cell surface CD14 antigen on HL-60 cells, promyelocytic leukemia cell line, HL-60, was treated with either 1,25(OH)2D3 or paricalcitol (10^−7M) for 4 days and examined for CD14 expression by flow cytometry using CD14 antibody (DAKO, Carpinteria, Calif.), as described previously (Hisatake et al., supra, 2001). Murine IgG1 antibody (DAKO) was used as a control.
Measurement of cell surface CD14 antigen on HL-60 cells by flow cytometry using CD14 antibody (DAKO, Carpinteria, Calif.), was determined as described previously (Hisatake et al. Blood 97:2427-2433 (2001)). Murine IgG1 antibody (DAKO) was used as a control.
(In general: In flow cytometry, cells or beads pass a laser one at a time.)

The subject of series [2] is HL-60 cells. Nature of the series: Western blot of cell lysates. The series is classed as cell-based, human. Here is the method:
(§2) Western blot analysis was used to determine the levels of proteins involved in cell cycle and differentiation. For western blot analysis, cells were washed twice in PBS, suspended in lysis buffer [50 mM Tris (pH 8.0), 150 mM NaCl, 0.1% SDS, 0.5% sodium deoxycholate, 1% NP40, […] phenylmethylsulfonyl fluoride, […] aprotinin, […] pepstatin, and […] leupetin] and placed on ice for 30 min. After centrifugation at 15,000×g for 15 min at 4° C., the suspension was collected. Protein concentrations were quantitated using the Bio-Rad assay (Bio-Rad Labolatories, Hercules, Calif.). Whole lysates ([…]) were resolved by 4-15% SDS polyacrylamide gel, transferred to an immobilon polyvinylidene difuride membrane (Amersham Corp., Arlington Heights, Ill.), and probed sequentially with a number of antibodies (p21WAF1, p27KIP1, PTEN, and GAPDH, Santa Cruz Biotechnology Inc., Santa Cruz, Calif.). The blots were developed using the Supersignal West Pico Chemiluminescent Substrate Kit (Pierce, Rockford, Ill.).
(§3) Western blot analysis was performed as follows: cells were washed twice in PBS, suspended in lysis buffer (50 mM Tris at pH 8.0, 150 mM NaCl, 0.1% SDS, 0.5% sodium deoxycholate, 1% Nonidet P-40, phenylmethylsulfonyl fluoride at 100 μg/mL, aprotinin at 2 μg/mL, pepstatin at 1 μg/mL, and leupetin at 10 μg/mL), and placed on ice for 30 minutes. After centrifugation at 15,000×g for 15 minutes at 4° C., the suspension was collected. Protein concentrations were quantitated by using the Bio-Rad protein Assay Dye Reagent Concentrate (Bio-Rad Laboratories, Hercules, Calif.) according to the manufacture's recommendation. Whole cell lysates (40 μg) were resolved by SDS-polyacrylamide gel electrophoresis in a 4%-15% gel, transferred to a polyvinylidene difuride membrane (Immobilon, Amersham Corp., Arlington Heights, Ill.), and probed sequentially with antibodies against the following proteins: VDR, RXR, CEBPβ, Rb, Bcl-2, Bcl-XL, Bax, p-ERK, RARA, GAPDH (Santa Cruz Biotechnology Inc., Santa Cruz, CA). The blots were developed using the Supersignal West Pico Chemiluminescent Substrate Kit (Pierce, Rockford, Ill.).

For another series, the system named is NB-4 cells. The experiment in a line: Western blot of cell lysates. Type of series: cell-based, human. Particulars: 10^−7 M, 72 hrs. On the procedure: as §2, §3
The conditions of series [3]: humans, cited from earlier work.
For series [4], the system named is NCI-H929 cells. Nature of the series: Western blot of cell lysates. Type of series: cell-based, human. The settings on record: 10^−7M. On the procedure:
Western blot analysis was used to determine the levels of proteins involved in cell cycle and differentiation. […] After centrifugation at 15,000×g for 15 min at 4° C., the suspension was collected. Protein concentrations were quantitated using the Bio-Rad assay (Bio-Rad Labolatories, Hercules, Calif.). […] The blots were developed using the Supersignal West Pico Chemiluminescent Substrate Kit (Pierce, Rockford, Ill.). In FIG. 3C, NCI-H929 cells were treated with either paricalcitol (10^−7M) or 1,25(OH)2D3 (10^−7M) and cell lysates were prepared after 72 hrs. Cell lysates were used for Western blot analysis and probed sequentially with antibodies to p27KIP1, Bcl-2 and Bax. Control cells were treated with vehicle alone. Amount of protein was normalized by comparison to the amount of GAPDH. […] The Bcl-2 and Bax antibodies were obtained from Santa Cruz Biotechnology Inc., Santa Cruz, Calif.

In series [5] the test system is NCI-H929 cells. The experiment in a line: Cell cycle analysis by flow cytometry. The series is classed as cell-based, human. The settings on record: 10^−7M, 72 hrs. Here is the method:
For cell cycle analysis, cells were exposed to 10^−7M 1,25(OH)2D3, 10^−7M paricalcitol or vehicle control for either 3 or 4 days. Total cells, both in suspension and adherent, were collected, washed, suspended in cold PBS. Then cells were fixed in 75% chilled methanol and stained with propidium iodine. Cell cycle status was analyzed on a Becton Dickinson Flow Cytometer.
HCI-H929 cells were cultured with either paricalcitol (10^−7M) or 1,25(OH)2D3 (10^−7M) for 72 hrs, harvested and stained with propidium iodine (PI). Control cells were treated with vehicle alone.

Series [6] deals with NCI-H929 cells. Nature of the series: TUNEL assay of apoptosis. Type of series: cell-based, human. Particulars: 10^−7M, 96 hrs, diluant control 4%. On the procedure:
In FIG. […] Results represent the mean±SD of three independent experiments. A TUNEL assay was performed for immunohistochemical detection and quantification of programmed cell death at the single cell level, based on labeling of DNA strand breaks using the In Situ Cell Death Detection, POD (Roche, Indianapolis, Ind.). Early apoptosis was also detected by measuring annexin V protein in the cell membrane using Annexin V-FITC Kit (CLONTECH, Palo Alto, Calif.) followed by flow cytometric analysis.

Another series relates to HT-29 cells. Nature of the series: Western blot of cell lysates. Type of series: cell-based, human. The settings on record: 10^−7M, 72 hrs. On the procedure: as §1, with “FIG. 4B, HT-29 cells were exposed to either paricalcitol (10^−7M) or 1,25(OH)2D3(10^−7M). Cell lysates were prepared after 72 hrs of culture and analyzed by Western blot. The Western blot was probed sequentially with antibodies for p27KIP1, p21WAF1, cyclin D1, c-myc and E-Cadherin (antibodies from Santa Cruz Biotechnology) as described in Example II. Control cells were treated with vehicle alone. The quantity of protein was normalized by comparison to the amount of GAPDH. In FIG.” for “FIG.”

These results are taken from patent US20050054620A1, “Paricalcitol as a chemotherapeutic agent” (priority 2003, published 2005).

With `C=C1/C(=C\C=C2/CCC[C@]3(C)[C@@H]([C@H](C)CCCC(C)(C)O)CC[C@@H]23)C[C@@H](O)C[C@@H]1O` [1,25(OH)2D3], in the series with SW837 cells, the “decrease of COX-2 expression” value came out at 50% and the “effect on COX-1 expression” value was “suppressed COX-2 but not COX-1 expression”. The “cells induced to express CD14” value in the series on HL-60 cells [1] (10^−7M, 96 hrs) is recorded as 54%. In addition, in the series on HL-60 cells [2] (10^−7M, 72 hr), the “induction of p21WAF1” value is “approximately 7 fold” and the “induction of p27KIP1” value is “about 6 fold”. The “PTEN expression (in words)” value in the series with HL-60 cells [2] (10^−7 M, 72 hrs) was “induced PTEN expression”. For the same molecule, the “PTEN expression (in words)” value with NB-4 cells is listed as “induced PTEN expression”. Further, the serum half-life entry in [3] (paricalcitol compared with 1,25(OH)2D3) is on record as “similar”. Further, the peak serum levels in [3] (typical dose 0.5 to 1.0 mg/every other day) is 40 to 60 pg/mL. In the series on NCI-H929 cells [4] (72 hrs), the “decrease of Bcl-2 protein level” value is “about 40%” and the “effect on levels of Bax” value is given as “did not affect”. Also, in the series with NCI-H929 cells [4] (96 hrs), the “effect on levels of p21WAF1” value is “little effect” and the “increase of p27KIP1 expression” value is “about 3 fold”. For the same molecule, the “increase of accumulation in G1/G0 phase” value with NCI-H929 cells [5] is given as 7%. Besides, in the series on NCI-H929 cells [5] (diluant control 4% sub-G1), the “increase in apoptotic sub-G1 population” value amounted to 16%. The “apoptotic cells (TUNEL)” value in the series on NCI-H929 cells [6] was 20%. In the series on HT-29 cells, the “decrease of COX-2 expression” value worked out at 50%, the “decrease of c-myc expression” value was ~40%, the “decrease of cyclin D1 expression” value is on record as “about 50%” and the “effect on COX-1 expression” value is recorded as “suppressed COX-2 but not COX-1 expression”. The “increase of E-cadherin” value in the series on HT-29 cells was “about 6 fold”.

On to `COc1cccc(-c2cc(=O)c3ccccc3o2)c1N` [PD98059], for which, in the series with HL-60 cells [1] (PD98059 25 μM, 2 days), the “monocytic differentiation (CD14) induced by paricalcitol and by the combination with arsenic trioxide” value was “blocked”.
